This experiment concerns the target T1, F508delCFTR (Homo sapiens, UniProt P13569, DEL508-508).
T1 construct: expressed in transfected cells; host or cells: CFBE41o- human lung-derived epithelial cells (CFBE4lo-F508delCFTR-HRP), doxycycline-inducible
The experiment in a line: Cell Surface Expression-Horse Radish Peroxidase (CSE-HRP) Assay.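 On Maximum % activity (with co-corrector): co-corrector and positive control are both the same reference corrector at 2 µM.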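 On Maximum % activity (without co-corrector): percent of the 2 µM on-plate positive control corrector response above DMSO.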 Conditions: for Emax / Maximum % activity (with co-corrector): maximum at any tested concentration, normalized to on-plate positive control; for Emax: read-out: Maximum % activity (without co-corrector); for Maximum % activity (with co-corrector): with co-corrector (2 μM). It is filed as cell-based.

The mark [1] stands for this setting: test compound without co-corrector.
Setting [2] is: test compound without co-corrector, read-out: EC50 (without co-corrector).
The mark [3] stands for this setting: with co-corrector (2 μM of 3-[(2R,4R)-4-({[1-(2,2-difluoro-1,3-benzodioxol-5-yl)cyclopropyl]carbonyl}amino)-7-methoxy-3,4-dihydro-2H-chromen-2-yl]benzoic acid), read-out: EC50 (with co-corrector).

SMILES strings stand for the structures. Like-named read-outs stand apart in the source and are kept apart here.

T1 sequence (P13569 with tags, fused parts or gaps DEL508-508): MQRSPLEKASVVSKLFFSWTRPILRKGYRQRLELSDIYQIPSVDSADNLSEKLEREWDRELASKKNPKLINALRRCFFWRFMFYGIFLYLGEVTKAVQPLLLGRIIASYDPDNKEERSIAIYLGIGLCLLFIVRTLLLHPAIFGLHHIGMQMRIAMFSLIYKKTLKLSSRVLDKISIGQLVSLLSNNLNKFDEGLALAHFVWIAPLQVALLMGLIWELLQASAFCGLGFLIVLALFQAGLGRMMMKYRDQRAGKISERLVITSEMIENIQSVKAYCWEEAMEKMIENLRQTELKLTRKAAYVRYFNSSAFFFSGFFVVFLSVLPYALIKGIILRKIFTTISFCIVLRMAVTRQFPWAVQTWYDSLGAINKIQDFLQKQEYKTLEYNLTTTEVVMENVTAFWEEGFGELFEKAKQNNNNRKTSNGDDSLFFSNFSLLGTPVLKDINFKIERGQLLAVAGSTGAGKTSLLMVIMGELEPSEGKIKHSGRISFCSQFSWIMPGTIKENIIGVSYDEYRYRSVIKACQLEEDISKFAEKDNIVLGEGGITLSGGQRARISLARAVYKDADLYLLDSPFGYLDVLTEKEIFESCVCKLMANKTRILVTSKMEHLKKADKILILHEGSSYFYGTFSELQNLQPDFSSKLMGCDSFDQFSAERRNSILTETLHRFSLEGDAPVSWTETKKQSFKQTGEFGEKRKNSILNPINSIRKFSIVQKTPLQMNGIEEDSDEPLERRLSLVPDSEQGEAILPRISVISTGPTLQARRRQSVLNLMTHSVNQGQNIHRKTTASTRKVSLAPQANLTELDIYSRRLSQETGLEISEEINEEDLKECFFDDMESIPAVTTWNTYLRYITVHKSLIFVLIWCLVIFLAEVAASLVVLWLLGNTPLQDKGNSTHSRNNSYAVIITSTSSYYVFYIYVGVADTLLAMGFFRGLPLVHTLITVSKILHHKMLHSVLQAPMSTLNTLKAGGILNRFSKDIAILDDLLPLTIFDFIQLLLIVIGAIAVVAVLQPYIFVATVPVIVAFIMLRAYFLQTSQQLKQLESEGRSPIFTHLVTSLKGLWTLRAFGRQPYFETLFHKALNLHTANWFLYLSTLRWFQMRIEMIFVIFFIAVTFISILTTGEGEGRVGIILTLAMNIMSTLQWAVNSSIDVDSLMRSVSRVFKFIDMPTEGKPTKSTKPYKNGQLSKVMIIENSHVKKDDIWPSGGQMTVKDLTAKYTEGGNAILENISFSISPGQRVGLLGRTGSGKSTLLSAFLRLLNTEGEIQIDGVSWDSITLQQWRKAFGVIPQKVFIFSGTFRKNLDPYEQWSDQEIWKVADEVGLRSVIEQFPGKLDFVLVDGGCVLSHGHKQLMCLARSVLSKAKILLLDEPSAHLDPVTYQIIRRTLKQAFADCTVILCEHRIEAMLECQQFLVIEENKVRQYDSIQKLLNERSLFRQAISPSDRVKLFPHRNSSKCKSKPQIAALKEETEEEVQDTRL

On to `CC(C)(C)[C@H]1[C@H](Nc2ccc(Cn3ccccc3=O)cn2)[C@H](c2ccccc2)N(C(=O)C2CCCCC2)[C@@H]1C(=O)O` [III-153], for which the “Maximum % activity (with co-corrector)” value is “+ (<150)”. Besides, the Emax under setting [1] was < 100%. Under setting [2], the concentration for a half-maximal effect (EC50) is > 10 µM. Further, under setting [3], the half-maximal effective concentration (EC50) is > 10 µM.

With `COc1ccc2cc(C)nc(N[C@H]3[C@H](C(C)(C)C)[C@@H](C(=O)O)N(C(=O)C4CCCCC4)[C@H]3c3ccccc3)c2c1` [III-154], the “Maximum % activity (with co-corrector)” value was “++ (≥150 and <350)”. Besides, the Emax under setting [1] was < 100%. Moreover, the EC50 under setting [2] fell in the range of 1 to 10 µM. The EC50 under setting [3] was in the range of 1 to 10 µM.

In the case of `CC(C)(C)NC(=O)c1ccc(N[C@H]2[C@H](C(C)(C)C)[C@@H](C(=O)O)N(C(=O)C3CCCCC3)[C@H]2c2ccccc2)nc1` [III-155], the “Maximum % activity (with co-corrector)” value is listed as “+ (<150)”. For the same molecule, under setting [1], the Emax is < 100%. Besides, the half-maximal effective concentration (EC50) under setting [2] is > 10 µM. The EC50 under setting [3] was in the range of 1 to 10 µM.

As for `CC(C)(C)[C@H]1[C@H](Nc2cc3ccccc3cn2)[C@H](c2ccccc2)N(C(=O)C2CCCCC2)[C@@H]1C(=O)O` [III-156], the “Maximum % activity (with co-corrector)” value is “++ (≥150 and <350)”. For the same molecule, the Emax under setting [1] was < 100%. For the same molecule, the EC50 under setting [2] is < 1 µM. Also, the EC50 under setting [3] lay within 1 to 10 µM.

On to `Cn1c(=O)c2c(N[C@H]3[C@H](C(C)(C)C)[C@@H](C(=O)O)N(C(=O)C4CCCCC4)[C@H]3c3ccccc3)nccc2n(C)c1=O` [III-157], for which the “Maximum % activity (with co-corrector)” value was “++ (≥150 and <350)”. Further, the Emax under setting [1] is < 100%. The EC50 under setting [2] was > 10 µM. The EC50 under setting [3] lay in the range of 1 to 10 µM.

For the molecule `CC(C)(C)[C@H]1[C@H](Nc2ccc(C3(C#N)CC3)cn2)[C@H](c2ccccc2)N(C(=O)C2CCCCC2)[C@@H]1C(=O)O` [III-159], the “Maximum % activity (with co-corrector)” value was “++ (≥150 and <350)”. Under setting [1], the Emax was < 100%. In addition, the EC50 under setting [2] was > 10 µM. The half-maximal effective concentration (EC50) under setting [3] lay within 1 to 10 µM.

For the molecule `CC(C)(C)[C@H]1[C@H](Nc2ncccc2OCc2ccccc2)[C@H](c2ccccc2)N(C(=O)C2CCCCC2)[C@@H]1C(=O)O` [III-160], the “Maximum % activity (with co-corrector)” value was “++ (≥150 and <350)”. Under setting [1], the Emax was < 100%. Besides, the concentration for a half-maximal effect (EC50) under setting [2] lay within 1 to 10 µM. For the same molecule, the concentration giving a half-maximal response (EC50) under setting [3] was in the range of 1 to 10 µM.

`CC(C)(C)NC(=O)c1cncc(N[C@H]2[C@H](C(C)(C)C)[C@@H](C(=O)O)N(C(=O)C3CCCCC3)[C@H]2c2ccccc2)c1` [III-161]: the “Maximum % activity (with co-corrector)” value is recorded as “+ (<150)”. The Emax under setting [1] was < 100%. The half-maximal effective concentration (EC50) under setting [2] is > 10 µM. In addition, the concentration for a half-maximal effect (EC50) under setting [3] is > 10 µM.

In the case of `CC(C)(C)[C@H]1[C@H](Nc2cncc3ccccc23)[C@H](c2ccccc2)N(C(=O)C2CCCCC2)[C@@H]1C(=O)O` [III-162], the “Maximum % activity (with co-corrector)” value was “++ (≥150 and <350)”. In addition, the Emax under setting [1] is < 100%. Also, the half-maximal effective concentration (EC50) under setting [2] was in the range of 1 to 10 µM. The 50% effective concentration (EC50) under setting [3] lay in the range of 1 to 10 µM.

In the case of `COc1cc(C(F)(F)F)ccc1CN[C@H]1[C@H](C(C)(C)C)[C@@H](C(=O)O)N(C(=O)c2cccnc2)[C@H]1c1ccccc1` [III-163], the “Maximum % activity (with co-corrector)” value is “++ (≥150 and <350)”. Under setting [1], the Emax was < 100%. The concentration giving a half-maximal response (EC50) under setting [2] is 1 to 10 µM. For the same molecule, under setting [3], the concentration for a half-maximal effect (EC50) lay in the range of 1 to 10 µM.

In the case of `COc1ccc(C(F)(F)F)cc1CN[C@H]1[C@H](C(C)(C)C)[C@@H](C(=O)O)N(C(=O)C2CCCCC2)[C@H]1c1ncccc1Cl` [III-164], the “Maximum % activity (with co-corrector)” value is “++ (≥150 and <350)”. In addition, the Emax under setting [1] is < 100%. Besides, the EC50 under setting [2] is > 10 µM. Also, under setting [3], the half-maximal effective concentration (EC50) is 1 to 10 µM.

For `COc1ncc(C(F)(F)F)cc1CN[C@@H]1[C@@H](C(C)(C)C)[C@H](C(=O)O)N(C(=O)[C@@H]2CCCCO2)[C@@H]1c1ccccc1` [III-165], the “Maximum % activity (with co-corrector)” value is “++ (≥150 and <350)”. Under setting [1], the Emax was < 100%. Further, the half-maximal effective concentration (EC50) under setting [2] is 1 to 10 µM. Moreover, under setting [3], the half-maximal effective concentration (EC50) lay within 1 to 10 µM.

As usually defined, the EC50 is the concentration needed to bring the measured effect to its halfway point.
